# Measured values published in patent US20130108573A1, “Bile Acid Recycling Inhibitors for Treatment of Hypercholemia and Cholestatic Liver Disease” (Lumena Pharmaceuticals, Inc., priority 2011, published 2013).
# Marks after values point to notes of the source that are not given here.
# How the values were obtained:
# [1] = Pediatric multiple-dose study of LUM-001: tolerability; type: in vivo, human; details: 2 weeks daily up to 5 mg q.d., 39 treated subjects aged 10-17
# Text: (39 treated subjects aged 10-17).
# [2] = Pharmacokinetics of LUM001 in subjects under 18 years (study NB-00-02-014): systemic exposure; type: in vivo, human; details: for Average serum drug exposure: day eight
# Method: LUM001 has been administered to forty patients under the age of 18 years old. […] The drug was administered once-a-day (QD) in the morning for fourteen days. […] These doses are similar to those using to treat patients with cholestatic diseases.
# Dog Serum Bile Acids [3] = test: Time to onset of activity of LUM001 on postprandial serum bile acids in beagle dogs; type: in vivo; details: for Serum Bile Acid, Mean: dogs n = 6, fed at 0 min, dosed at 60 min
# Method: LUM001 was dissolved in water at concentrations that required the administration of 0.2 ml/kg of solution. Solutions were placed into gelatin capsules, Torpac Inc., size 13 Batch 594, East Hanover N.J., and administered orally.
# Male beagle dogs were obtained from Covance Research Products, Cumberland Va. or Marshall Farms USA, Inc., North Rose N.Y. A total of 20 dogs, 1 to 5 years old, 6.8 to 15.6 kg body weight, were used in these experiments. The dogs were conditioned to a 12 hour light/dark cycle and maintained on a feeding restriction of 1 hour per day access to food (Richman Standard Certified Canine Diet #5007, PMI Nutrition, Inc., St Louis Mo.) from 7 to 8 AM. They were trained to eat a special meal promptly within 20 minutes when presented (1 can. 397 g, Evanger's 100% Beef for Dogs, Evanger's Dog and Cat Food Co., Inc., Wheeling Ill., mixed with 50 g of sharp cheddar cheese.).
# SBA was measured by an enzymatic assay. SBA values are expressed as μg of total bile acids/ml of serum.
# To estimate the details of this plateau, 6 dogs were given a test meal and blood samples for SBA measurement were collected at −30, 0, 30, 60, 65, 70, 80, 90, 120, 180, 240, 360, 480, 720, 1410 and 1440 minutes from the time of feeding. Any remaining food was removed 20 min after it was first presented to the dogs. To establish a method for extending the elevated plateau of SBA, 6 dogs were given the meal at 0 hr and an additional ½ size meal again 4 hr after their first meal. Blood samples were taken at 0, 1, 2, 3, 4, 4.5, 6, 7 and 8 hr. The curves for SBA level vs time obtained in these experiments were used as references for determining blood sampling times in experiments with LUM001. Wherever possible, experimental design permitting, in experiments with test compound, each dog served as its own simultaneous control, and the mean 1 hr SBA value served as the reference to which all other mean values were compared.
# LUM001 was administered at 0, 0.01, 0.05, 0.2 and 1 mg/kg, p.o. to dogs, n=6, 1 hr after feeding the standard experimental meal. Blood samples for SBA measurement were taken at −30, 0, 30, 60, 65, 70, 80, 90, 120 and 180 minutes from the time of feeding. Each dog served as its own control, and mean SBA levels were compared to the mean SBA level at 60 minutes.
# Dog Serum Bile Acids [4] = test: Duration of action of LUM001 on dog serum bile acids, Method 2: one meal, extended interval between dosing and feeding; type: in vivo, beagle dogs; details: feeding time 2 hr
# [5] = dogs, 1 mg/kg orally 1 hour after feeding
smiles,measurement,setting,value
CCCCC1(CCCC)CS(=O)(=O)c2ccc(N(C)C)cc2[C@@H](c2ccc(OCc3ccc(C[N+]45CCN(CC4)CC5)cc3)cc2)[C@H]1O [LUM001],Tolerability,[1],well-tolerated
same,Systemic exposure (absorption) of LUM001,"[2]; patients under the age of 18, once-a-day in the morning for fourteen days, measured on day eight",minimally absorbed
same,Average serum drug exposure,"[2]; subject 0304, LUM001 1.0 mg QD (24.3 μg/kg)",0.0 ng/mL
same,Average serum drug exposure,"[2]; subject 0309, LUM001 1.0 mg QD (35.0 μg/kg)",0.0 ng/mL
same,Threshold dose for significant SBA lowering,"Dog Serum Bile Acids [3]; dog SBA model, oral",0.05 mg/kg
same,"Serum Bile Acid, Mean","Dog Serum Bile Acids [3]; 0.01 mg/kg p.o., time 0 min",1.4 µg/mL
same,"Serum Bile Acid, Mean","Dog Serum Bile Acids [3]; 0.01 mg/kg p.o., time 30 min",5.8 µg/mL
same,"Serum Bile Acid, Mean","Dog Serum Bile Acids [3]; 0.01 mg/kg p.o., time 60 min",14.6 µg/mL
same,"Serum Bile Acid, Mean","Dog Serum Bile Acids [3]; 0.01 mg/kg p.o., time 65 min",13.9 µg/mL
same,"Serum Bile Acid, Mean","Dog Serum Bile Acids [3]; 0.01 mg/kg p.o., time 70 min",14.1 µg/mL
same,"Serum Bile Acid, Mean","Dog Serum Bile Acids [3]; 0.01 mg/kg p.o., time 80 min",12.8 µg/mL
same,"Serum Bile Acid, Mean","Dog Serum Bile Acids [3]; 0.01 mg/kg p.o., time 90 min",11.0 µg/mL
same,"Serum Bile Acid, Mean","Dog Serum Bile Acids [3]; 0.01 mg/kg p.o., time 120 min",10.6 µg/mL
same,"Serum Bile Acid, Mean","Dog Serum Bile Acids [3]; 0.01 mg/kg p.o., time 180 min",11.0 µg/mL
same,"Serum Bile Acid, Mean","Dog Serum Bile Acids [3]; 0.01 mg/kg p.o., time −30 min",1.5 µg/mL
same,"Serum Bile Acid, Mean","Dog Serum Bile Acids [3]; 0.05 mg/kg p.o., time 0 min",2.1 µg/mL
same,"Serum Bile Acid, Mean","Dog Serum Bile Acids [3]; 0.05 mg/kg p.o., time 30 min",6.8 µg/mL
same,"Serum Bile Acid, Mean","Dog Serum Bile Acids [3]; 0.05 mg/kg p.o., time 60 min",10.4 µg/mL
same,"Serum Bile Acid, Mean","Dog Serum Bile Acids [3]; 0.05 mg/kg p.o., time 65 min",12.2 µg/mL
same,"Serum Bile Acid, Mean","Dog Serum Bile Acids [3]; 0.05 mg/kg p.o., time 70 min",12.0 µg/mL
same,"Serum Bile Acid, Mean","Dog Serum Bile Acids [3]; 0.05 mg/kg p.o., time 80 min",10.0 µg/mL
same,"Serum Bile Acid, Mean","Dog Serum Bile Acids [3]; 0.05 mg/kg p.o., time 90 min",8.8 µg/mL
same,"Serum Bile Acid, Mean","Dog Serum Bile Acids [3]; 0.05 mg/kg p.o., time 120 min",6.5* μg/ml
same,"Serum Bile Acid, Mean","Dog Serum Bile Acids [3]; 0.05 mg/kg p.o., time 180 min",6.5* μg/ml
same,"Serum Bile Acid, Mean","Dog Serum Bile Acids [3]; 0.05 mg/kg p.o., time −30 min",1.4 µg/mL
same,"Serum Bile Acid, Mean","Dog Serum Bile Acids [3]; 0.2 mg/kg p.o., time 0 min",1.9 µg/mL
same,"Serum Bile Acid, Mean","Dog Serum Bile Acids [3]; 0.2 mg/kg p.o., time 30 min",9.1 µg/mL
same,"Serum Bile Acid, Mean","Dog Serum Bile Acids [3]; 0.2 mg/kg p.o., time 60 min",19.1 µg/mL
same,"Serum Bile Acid, Mean","Dog Serum Bile Acids [3]; 0.2 mg/kg p.o., time 65 min",14.9 µg/mL
same,"Serum Bile Acid, Mean","Dog Serum Bile Acids [3]; 0.2 mg/kg p.o., time 70 min",16.7 µg/mL
same,"Serum Bile Acid, Mean","Dog Serum Bile Acids [3]; 0.2 mg/kg p.o., time 80 min",14.3 µg/mL
same,"Serum Bile Acid, Mean","Dog Serum Bile Acids [3]; 0.2 mg/kg p.o., time 90 min",9.8* μg/ml
same,"Serum Bile Acid, Mean","Dog Serum Bile Acids [3]; 0.2 mg/kg p.o., time 120 min",4.8* μg/ml
same,"Serum Bile Acid, Mean","Dog Serum Bile Acids [3]; 0.2 mg/kg p.o., time 180 min",4.0 µg/mL
same,"Serum Bile Acid, Mean","Dog Serum Bile Acids [3]; 0.2 mg/kg p.o., time −30 min",2.4 µg/mL
same,"Serum Bile Acid, Mean","Dog Serum Bile Acids [3]; 1 mg/kg p.o., time 0 min",2.6 µg/mL
same,"Serum Bile Acid, Mean","Dog Serum Bile Acids [3]; 1 mg/kg p.o., time 30 min",7.6 µg/mL
same,"Serum Bile Acid, Mean","Dog Serum Bile Acids [3]; 1 mg/kg p.o., time 60 min",13.8 µg/mL
same,"Serum Bile Acid, Mean","Dog Serum Bile Acids [3]; 1 mg/kg p.o., time 65 min",13.5 µg/mL
same,"Serum Bile Acid, Mean","Dog Serum Bile Acids [3]; 1 mg/kg p.o., time 70 min",15.4 µg/mL
same,"Serum Bile Acid, Mean","Dog Serum Bile Acids [3]; 1 mg/kg p.o., time 80 min",12.1 µg/mL
same,"Serum Bile Acid, Mean","Dog Serum Bile Acids [3]; 1 mg/kg p.o., time 90 min",7.4* μg/ml
same,"Serum Bile Acid, Mean","Dog Serum Bile Acids [3]; 1 mg/kg p.o., time 120 min",3.0* μg/ml
same,"Serum Bile Acid, Mean","Dog Serum Bile Acids [3]; 1 mg/kg p.o., time 180 min",2.6* μg/ml
same,"Serum Bile Acid, Mean","Dog Serum Bile Acids [3]; 1 mg/kg p.o., time −30 min",2.1 µg/mL
same,Time after dosing to significantly lowered serum bile acid levels,"Dog Serum Bile Acids [3]; dogs, 0.2 mg/kg orally 1 hour after feeding",≤ 30 min
same,Effect of increasing the dose above the ED50 level on onset time to significant SBA lowering,Dog Serum Bile Acids [3]; [5],did not shorten the onset time
same,Time after dosing for which maximal SBA suppression was sustained,Dog Serum Bile Acids [3]; [5],2 h
same,"Serum Bile Acid, Mean","Dog Serum Bile Acids [4]; dogs n = 6, 0.2 mg/kg p.o., dosing time 0 hr, time 3 hr",4.1* μg/ml
same,"Serum Bile Acid, Mean","Dog Serum Bile Acids [4]; dogs n = 6, 0.2 mg/kg p.o., dosing time 0 hr, time 4 hr",6.5* μg/ml
same,"Serum Bile Acid, Mean","Dog Serum Bile Acids [4]; dogs n = 9, 0.05 mg/kg p.o., dosing time 0 hr, time 0 hr",1.7 µg/mL
same,"Serum Bile Acid, Mean","Dog Serum Bile Acids [4]; dogs n = 9, 0.05 mg/kg p.o., dosing time 0 hr, time 2 hr",2.0 µg/mL
same,"Serum Bile Acid, Mean","Dog Serum Bile Acids [4]; dogs n = 9, 0.05 mg/kg p.o., dosing time 0 hr, time 3 hr",9.0* μg/ml
same,"Serum Bile Acid, Mean","Dog Serum Bile Acids [4]; dogs n = 9, 0.05 mg/kg p.o., dosing time 0 hr, time 4 hr",10.8 µg/mL
same,"Serum Bile Acid, Mean","Dog Serum Bile Acids [4]; dogs n = 9, 0.05 mg/kg p.o., dosing time 0 hr, time 5 hr",10.6 µg/mL
same,"Serum Bile Acid, Mean","Dog Serum Bile Acids [4]; dogs n = 9, 0.05 mg/kg p.o., dosing time 0.5 hr, time 0.5 hr",1.8 µg/mL
same,"Serum Bile Acid, Mean","Dog Serum Bile Acids [4]; dogs n = 9, 0.05 mg/kg p.o., dosing time 0.5 hr, time 2 hr",1.7 µg/mL
same,"Serum Bile Acid, Mean","Dog Serum Bile Acids [4]; dogs n = 9, 0.05 mg/kg p.o., dosing time 0.5 hr, time 2.5 hr",2.5 µg/mL
same,"Serum Bile Acid, Mean","Dog Serum Bile Acids [4]; dogs n = 9, 0.05 mg/kg p.o., dosing time 0.5 hr, time 3 hr",9.7 µg/mL
same,"Serum Bile Acid, Mean","Dog Serum Bile Acids [4]; dogs n = 9, 0.05 mg/kg p.o., dosing time 0.5 hr, time 4 hr",12.4 µg/mL
same,"Serum Bile Acid, Mean","Dog Serum Bile Acids [4]; dogs n = 9, 0.05 mg/kg p.o., dosing time 0.5 hr, time 5 hr",11.6 µg/mL
